According to US8461145B2 (priority 2007, dated 2013):

The compounds below were run against Human TRPA1 (Homo sapiens, UniProt O75762) (assay: cell-based). Conditions: not given.
Chain of Human TRPA1 (O75762 whole entry, looked up): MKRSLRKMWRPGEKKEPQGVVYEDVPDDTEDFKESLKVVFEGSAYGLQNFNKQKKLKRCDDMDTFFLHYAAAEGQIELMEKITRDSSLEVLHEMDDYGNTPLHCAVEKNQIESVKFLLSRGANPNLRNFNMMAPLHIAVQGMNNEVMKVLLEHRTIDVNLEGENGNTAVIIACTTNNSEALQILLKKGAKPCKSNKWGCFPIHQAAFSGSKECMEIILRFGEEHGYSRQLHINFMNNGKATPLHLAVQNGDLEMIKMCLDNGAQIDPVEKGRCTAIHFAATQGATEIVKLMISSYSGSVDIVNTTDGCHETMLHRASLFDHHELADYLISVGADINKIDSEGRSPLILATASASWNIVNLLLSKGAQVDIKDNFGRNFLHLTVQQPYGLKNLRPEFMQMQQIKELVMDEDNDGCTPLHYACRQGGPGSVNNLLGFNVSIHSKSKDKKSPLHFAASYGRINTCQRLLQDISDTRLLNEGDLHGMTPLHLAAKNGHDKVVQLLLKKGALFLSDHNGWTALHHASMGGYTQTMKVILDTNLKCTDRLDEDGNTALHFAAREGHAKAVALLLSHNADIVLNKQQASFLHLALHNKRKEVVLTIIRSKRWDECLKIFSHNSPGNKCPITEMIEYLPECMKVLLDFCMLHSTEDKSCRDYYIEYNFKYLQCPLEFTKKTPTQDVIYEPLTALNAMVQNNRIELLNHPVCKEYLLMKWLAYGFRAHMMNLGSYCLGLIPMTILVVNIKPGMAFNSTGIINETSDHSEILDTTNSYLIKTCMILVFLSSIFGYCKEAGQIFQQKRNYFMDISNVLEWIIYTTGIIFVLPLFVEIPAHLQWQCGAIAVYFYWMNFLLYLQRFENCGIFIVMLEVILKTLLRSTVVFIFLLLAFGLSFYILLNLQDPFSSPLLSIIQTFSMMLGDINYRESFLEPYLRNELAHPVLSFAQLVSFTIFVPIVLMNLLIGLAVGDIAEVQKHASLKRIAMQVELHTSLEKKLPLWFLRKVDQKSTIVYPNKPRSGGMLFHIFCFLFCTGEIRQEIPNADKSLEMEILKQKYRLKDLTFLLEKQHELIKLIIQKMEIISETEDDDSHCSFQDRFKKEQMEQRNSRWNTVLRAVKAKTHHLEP

Row | Compound | pEC50 values for TRPA1 agonism
1 | COC(=O)c1ccc2c(c1)Cc1ccccc1C=N2 [Compound 3] | 9.24
2 | COC(=O)c1ccc2c(c1)Oc1ccccc1N=C2 [Compound 10] | 7.28
3 | COC(=O)c1cccc2c1Oc1ccccc1N=C2 [Compound 12] | 10.22
4 | CCCCOC(=O)c1cccc2c1Cc1ccccc1N=C2 [Compound 13] | 8.07
5 | COC(=O)c1cccc2c1Cc1ccccc1C=N2 [Compound 17] | 9.24
6 | NC(=O)c1cccc2c1Oc1ccccc1N=C2 [Compound 21] | 10.12
7 | COC(=O)c1cccc2c1Oc1ccccc1C=N2 [Compound 23] | 9.93

Same assay, conditions: pEC50 values for TRPA1 agonism

Row | Compound | EC50 [nM]
8 | COC(=O)c1ccc2c(c1)C=Nc1ccccc1C2 [Compound 1] | 93.3
9 | O=C(O)c1cccc2c1Cc1ccccc1N=C2 [Compound 4] | 363
10 | CCN(CC)C(=O)c1cccc2c1Cc1ccccc1N=C2 [Compound 5] | 44.7
11 | COCCCNC(=O)c1cccc2c1Cc1ccccc1N=C2 [Compound 6] | 8.71
12 | COCCCNC(=O)c1cccc2c1Cc1ccccc1N=C2 [Compound 7] | 5.89
13 | CN1CCN(C(=O)c2ccc3c(c2)Cc2ccccc2C=N3)CC1 [Compound 8] | 3.16
14 | COC(=O)c1cccc2c1Oc1ccccc1N=C2 [Compound 11] | 0.0813
15 | CCCCOC(=O)c1cccc2c1Cc1ccccc1N=C2 [Compound 14] | 5.62
16 | CN1CCN(C(=O)c2ccc3c(c2)Cc2ccccc2N=C3)CC1 [Compound 15] | 1620
17 | COC(=O)c1cccc2c1N=Cc1ccccc1C2 [Compound 18] | 27.5
18 | COC(=O)c1cccc2c1C=Nc1ccccc1C2 [Compound 19] | 28.8
19 | COC(=O)c1ccc2c(c1)N=Cc1ccccc1C2 [Compound 20] | 28.2
20 | COC(=O)c1cccc2c1Oc1ccccc1C=N2 [Compound 24] | 0.0741
21 | COC(=O)c1cccc2c1Cc1ccccc1C=N2 [Compound 25] | 0.447
22 | COC(=O)c1cccc2c1N=Cc1ccccc1C2 [Compound 26] | 38
